# Experimental data as given in US20190328857A1, “CALR AND JAK2 VACCINE COMPOSITIONS” (IO Biotech ApS, priority 2016, published 2019).
# Tests used:
# Format in all cases: cell-based, human
# UKE-1 and THP-1 cells = test: ELISPOT of JAK201-specific T cells stimulated with cancer cell lines; settings: 100 U/ml IFN-γ 2 days before assaying
# Description: (§1) Next, we examined the capacity of JAK201-specific T cells to recognize and kill cancer cells harboring the JAK2V617F mutation. UKE-1, SET-2 and THP-1 are acute myeloid leukemia cancer cell lines that are HLA-A2-positive. THP-1 cells are JAK2 wt, whereas UKE-1 cells are homozygous and SET-2 are heterozygous for the JAK2V617F mutation. We first examined JAK201-specific T-cells reaction towards the UKE-1 cancer cell line. […] IFN-γ is known to induce the immunoproteasome and to upregulate HLA class I on the cell surface overall enhancing the antigen presentation by the target cell.
# Finally to confirm the recognition of cells expressing the JAK2V617F mutation, we transfected JAK2 wt THP-1 cells with mRNA encoding the JAK2V617F mutation using neural growth factor receptor (NGFR) encoding mRNA as control and used these cells as target cells in cytokine release and Granzyme B assays. […] More than 50% of patients with Philadelphia chromosomenegative chronic MPN harbor the JAK2V617F mutation. This acquired somatic mutation is found exclusively in myeloid malignancies, rendering it a cancer-specific antigen. JAK2V617F is consequently an attractive target for cancer immune therapy.
# [1] = tested on: UKE-1, SET-2 and THP-1 cells; test: Standard Cr^51 cytotoxicity assay with JAK201-specific T cells and cancer cell lines
# Description: as §1
# Then we examined the importance of the intracellular expression of the JAK2V617F mutation for the recognition of target cells by JAK201-specific T cells. Thus to silence the JAK2V617F mutation, we transfected UKE-1 cells with JAK2V617F siRNA and used the transfected cells as target cells, and compared the recognition with mock transfected UKE-1 cells as previously described. Silencer siRNA duplex for targeted silencing of JAK2V617F with 3′-end overhang dT bases in the antisense strand (sense sequence 5′-[…]-3′ (SEQ ID NO: 21), antisense sequence 5′-[…]-3′ (SEQ ID NO: 22) for duplex 1; and sense sequence 5′-[…]-3′ (SEQ ID NO: 23), antisense sequence 5′-[…]-3′ (SEQ ID NO: 24) for duplex 2) were obtained from Invitrogen (Invitrogen, Paisley, UK). […]
# autologous CALRmut cells = test: Intracellular cytokine staining of CALRLong1-specific T cells stimulated with autologous target cells; settings: IFN-γ 300 U/ml for 24 h
# Description: As target cells, we used autologous CD14^+ monocytes and B-cells (BCL). As described above, CD14^+ monocytes were isolated using the MACS CD14 MicroBead kit. An autologous B-cell line was generated using EBV transfection of donor BCL at the Health Protection Agency Culture Collections, Salisbury, UK.
# Frozen T-cells were thawed one day prior to assaying, and in experiments examining CD107a expression, a CD107a-PE antibody was added to cells directly after addition of peptide or target cells. After one hour of stimulation, protein-transport inhibitor Brefeldin A (BD Biosciences, San Jose, Calif., USA) was added to the cells which were then stimulated for four h. Cells were stained with CD3-APC-H7, CD4-FITC, CD8-PerCP, IFN-γ-APC, TNF-α-BV421 and Fixable Viability Stain 510 (BD Biosciences, San Jose, Calif., USA), permeabilized and washed with Permeabilization Reagent/Diluent and fixation-permeabilization buffer (AH Diagnostics, Aarhus, Denmark). Cells were acquired with a FACS Canto II (BD Biosciences) and analyzed using FACSDiva software. All effector cell stimulations were run in triplicate wells if not otherwise specified.
# Autologous CD14^+ monocytes were cultured with CellGro, GM-CSF (1000 U/ml) and IL-4 (250 U/mL) and transfected with either CALR siRNA or negative-control siRNA (Invitrogen) the next day, using electroporation parameters as described previously (Met et al., 2011). In brief, monocytes were washed twice, suspended in Opti-MEM medium (Invitrogen) and adjusted to a final cell density of 10^7 cells/ml. The cell suspension (200 μl) was preincubated for 5 min on ice and subsequently, together with 5 μl of CALR siRNA or 10 μl of negative control siRNA transferred to a 2-mm gap electroporation and pulsed using a BTX 830 square-wave electroporator (Harvard Apparatus, Holliston Mass., USA). Electroporation settings were adjusted to a single pulse, 250 V, 2 ms. […]
# As target cells, we used CD14^+ monocytes with CALRmut allelic burden of 71% and autologous EBV-transformed immortalized B-cells with a CALRmut allelic burden of 0% determined by PCR analysis. […]
substance,measurement,setting,value
IFN-γ: cytokine used to pretreat target cells to enhance antigen presentation,effect of pretreatment of UKE-1 cells on IFN-γ release from the T cells,UKE-1 and THP-1 cells,even greater release
same,lysis of SET-2 cells after stimulation,[1]; IFN-γ stimulation,likewise lysed
same,effect of treatment of UKE-1 cells on lysis,[1]; IFN-γ treatment,augmented
same,"effect of target cell stimulation on T-cell activation, B-cells",autologous CALRmut cells,no change in activation
same,"effect of target cell stimulation on T-cell activation, CALRmut monocytes",autologous CALRmut cells,significantly enhanced
